Reference: patent US6887889B2 (Pharmacopeia Drug Discovery, Inc., priority 2001, dated 2005)

Biological target: T1, hMCHR (Homo sapiens, UniProt Q99705)
T1 construct: host or cells: CHO (Chinese hamster ovary) cells, membranes
Test: MCH Assay PCOP Protocol: [125I]-MCH binding to hMCHR-CHO membranes, WGA-SPA beads
Settings: hMCHR-CHO overexpressing membranes, 0.5 nM [125I]-MCH, 2 hours incubation
Experimental: A reaction mixture of 10 μg hMCHR-CHO overexpressing membranes (from Receptor Biology, Inc., Beltville, Md., or internally produced) and 100 μg/well WGA-SPA beads (from Amersham Pharmacia Biotech, Inc., Piscataway, N.J.)/100 μL was prepared in MCHR assay buffer (25 mM HEPES, pH 7.4, 10 mM NaCl, 10 mM MgCl2, 5 mM MnCl2, 0.1%BSA). […] The assay plates were shaken for 5 minutes on a plate shaker, then incubated for 2 hours before cpm/well were determined in a Microbeta Trilux counter (from Perkin Elmer Wallac, Inc., Gaithersburg, Md.).

T1 sequence (Q99705 whole entry): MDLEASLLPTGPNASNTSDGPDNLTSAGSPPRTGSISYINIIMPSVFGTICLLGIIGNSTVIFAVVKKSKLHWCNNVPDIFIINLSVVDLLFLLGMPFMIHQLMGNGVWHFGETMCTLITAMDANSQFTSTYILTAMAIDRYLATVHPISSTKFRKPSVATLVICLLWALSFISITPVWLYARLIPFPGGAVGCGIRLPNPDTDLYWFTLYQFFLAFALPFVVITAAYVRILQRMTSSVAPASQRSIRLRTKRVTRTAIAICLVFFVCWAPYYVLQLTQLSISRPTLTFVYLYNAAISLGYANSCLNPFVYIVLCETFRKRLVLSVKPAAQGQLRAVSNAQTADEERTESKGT

Compound	Ki [nM]
N#Cc1cccc(-c2ccc(C3(CNC(=O)Nc4cc(C(F)(F)F)ccc4Cl)CCN(CC4CC4)CC3)cc2)c1 [Example 68]	11 to 100
CCCN1CCC(CNC(=O)Nc2ccc(F)c(C(F)(F)F)c2)(c2ccc(-c3cccc(C#N)c3)cc2)CC1 [Example 103]	0.2 to 10
CC(C)COC(=O)NCC1(c2ccc(-c3cccc(C#N)c3)cc2)CCN(CC2CC2)CC1 [Example 12, [4-(3′-Cyano-biphenyl-4-yl)-1-cyclopropylmethyl-piperidin-4-ylmethyl]-carbamic acid isobutyl ester]	101 to 5500
N#Cc1cccc(-c2ccc(C3(CNC(=O)Nc4cc(Cl)cc(Cl)c4)CCN(C4CCOCC4)CC3)cc2)c1 [Example 109]	0.2 to 10
CN(CC1(c2ccc(-c3cccc(C#N)c3)cc2)CCN(CC2CC2)CC1)C(=O)Nc1ccc(Cl)c(C(F)(F)F)c1 [Example 104]	11 to 100
COCCN1CCC(CNC(=O)Nc2ccc(F)c(Cl)c2)(c2ccc(-c3cccc(C#N)c3)cc2)CC1 [Example 90]	0.2 to 10
CN1CCC(CNC(=O)Nc2ccc(Cl)cc2C(F)(F)F)(c2ccc(-c3cccc(Cl)c3)cc2)CC1 [Example 59]	101 to 5500
CN1CCC(CN(C)C(=O)Nc2cc(Cl)cc(Cl)c2)(c2ccc(-c3cccc(C#N)c3)cc2)CC1 [Example 38]	0.2 to 10
COCCN1CCC(CNC(=O)Nc2ccc(OC)c(Cl)c2)(c2ccc(-c3cccc(C#N)c3)cc2)CC1 [Example 95]	11 to 100
3-Chloro-N-[4-(3′-cyano-biphenyl-4-yl)-1-cyclopropylmethyl-piperidin-4-ylmethyl]-4-fluoro-benzenesulfonamide [Example 11]	101 to 5500
CC(=O)Nc1cccc(-c2ccc(C3(CNC(=O)Nc4cc(Cl)cc(Cl)c4)CCN(C4CCCCC4)CC3)cc2)c1 [Example 122]	0.2 to 10
CCCN1CCC(CNC(=O)Nc2cc(Cl)cc(Cl)c2)(c2ccc(C)cc2)CC1 [Example 27]	101 to 5500
CN1CCC(CNC(=O)Nc2ccccc2)(c2ccc(-c3cccc(Cl)c3)cc2)CC1 [Example 62]	0.2 to 10
N#Cc1cccc(-c2ccc(C3(CNCC4CC4)CCN(C(=O)Nc4cc(Cl)cc(Cl)c4)CC3)cc2)c1 [Example 131]	11 to 100
CCCN1CCC(CNC(=O)Nc2ccc(F)c(Cl)c2)(c2ccc(-c3cccc(C#N)c3)cc2)CC1 [Example 65]	0.2 to 10
CCCN1CCC(CNC(=O)Nc2ccc3c(c2)OCO3)(c2ccc(-c3cccc(C#N)c3)cc2)CC1 [Example 101]	11 to 100
CN(CC1(c2ccc(-c3cccc(C#N)c3)cc2)CCN(CC2CC2)CC1)C(=O)Nc1cc(F)cc(F)c1 [Example 97]	11 to 100
O=C(NCC1(c2ccc(-c3cccc(Cl)c3)cc2)CCN(C2CCCCC2)CC1)Nc1cc(Cl)cc(Cl)c1 [Example 120]	0.2 to 10
CN1CCC(CNC(=O)Nc2cc(Cl)cc(Cl)c2)(c2cccc(Cl)c2)CC1 [Example 24]	101 to 5500
CN1CCC(CNC(=O)Nc2cc(C(F)(F)F)ccc2Cl)(c2ccc(-c3cccc(Cl)c3)cc2)CC1 [Example 57]	11 to 100
CN1CCC(C(=O)NCc2cc(Cl)cc(Cl)c2)(c2ccc(-c3cccc(C#N)c3)cc2)CC1 [Example 16, 4-(3′-Cyano-biphenyl-4-yl)-1-methyl-piperidine-4-carboxylic acid 3,5-dichloro-benzylamide]	101 to 5500

Compound	Ki [nM]
O=C(Nc1cc(Cl)cc(Cl)c1)N1CCC(CNCC2CC2)(c2ccc(-c3cccc(Cl)c3)cc2)CC1 [Example 128]	101 to 5500
CN1CCC2(CC1)CN(C(=O)Nc1ccc(F)c(Cl)c1)c1cc(-c3cccc(C#N)c3)ccc12 [Example 17, 1-(3-Chloro-4-fluorophenyl)ureido-6-(3-cyanophenyl)-1′-methyl-spiro[indoline-3,4′-piperidine]]	101 to 5500
CCN1CCC(CNC(=O)Nc2cc(Cl)cc(Cl)c2)(c2ccc(-c3cccc(Cl)c3)cc2)CC1 [Example 121]	11 to 100
CC(C)CN1CCC(CNC(=O)Nc2cc(Cl)cc(Cl)c2)(c2ccc(-c3cccc(C#N)c3)cc2)CC1 [Example 7, 1-[4-(3′-Cyano-biphenyl-4-yl)-1-isobutyl-piperidin-4-ylmethyl]-3-(3,5-dichloro-phenyl)-urea]	11 to 100
CN1CCC(CNC(=O)Nc2cc(Cl)cc(Cl)c2)(c2ccc(-c3cccc(N)c3)cc2)CC1 [Example 41]	11 to 100
CC(C)CN1CCC(CNC(=O)Nc2cc(Cl)cc(Cl)c2)(c2ccc(-c3cccc(Cl)c3)cc2)CC1 [Example 112]	11 to 100
COCCN1CCC(CNC(=O)Nc2cc(Cl)cc(Cl)c2)(c2ccc(-c3cccc(Cl)c3)cc2)CC1 [Example 35]	0.2 to 10
COCCN1CCC(CNCc2cc(Cl)cc(Cl)c2)(c2ccc(-c3cccc(Cl)c3)cc2)CC1 [Example 129]	101 to 5500
CCCCN1CCC(CNC(=O)Nc2cc(Cl)cc(Cl)c2)(c2ccc(-c3cccc(Cl)c3)cc2)CC1 [Example 113]	11 to 100
CN(CC1(c2ccc(-c3cccc(C#N)c3)cc2)CCN(CC2CC2)CC1)C(=O)Nc1ccc(F)c(Cl)c1 [Example 99]	11 to 100
CCCNCC1(c2ccc(-c3cccc(C#N)c3)cc2)CCN(C(=O)Nc2cc(Cl)cc(Cl)c2)CC1 [Example 134]	11 to 100
COCCN1CCC(CNC(=O)Nc2ccc(Cl)c(C(F)(F)F)c2)(c2ccc(-c3cccc(C#N)c3)cc2)CC1 [Example 94]	0.2 to 10
COCCN1CCC2(CC1)CN(C(=O)Nc1ccc(F)c(Cl)c1)c1ccc(-c3cccc(C#N)c3)cc12 [Example 86]	101 to 5500
CN1CCC(C(=O)Nc2cc(Cl)cc(Cl)c2)(c2ccc(-c3cccc(C#N)c3)cc2)CC1 [Example 15, 4-(3′-Cyano-biphenyl-4-yl)-1-methyl-piperidine-4-carboxylic acid (3.5-dichloro-phenyl)-amide]	101 to 5500
O=C(NCC1(c2ccc(-c3cccc(Cl)c3)cc2)CCN(CC2CC2)CC1)Nc1ccc(Cl)c(C(F)(F)F)c1 [Example 61]	11 to 100
CN1CCC(CNC(=O)Nc2cc(Cl)cc(Cl)c2)(c2ccc(-c3ccc4[nH]ccc4c3)cc2)CC1 [Example 78]	101 to 5500
N#Cc1cccc(-c2ccc(C3(CNC(=O)Nc4cc(Cl)cc(Cl)c4)CCN(CCC(F)(F)F)CC3)cc2)c1 [Example 118]	0.2 to 10
N#Cc1cccc(-c2ccc(C3(CNC(=O)Cc4cc(F)cc(F)c4)CCN(CC4CC4)CC3)cc2)c1 [Example 10, N-[4-(3′-Cyano-biphenyl-4-yl)-1-cyclopropylmethyl-piperidin-4-ylmethyl]-2-(3.5-difluoro-phenyl)-acetamide]	101 to 5500
N#Cc1cccc(-c2ccc(C3(CNC(=O)Nc4ccc(Cl)cc4C(F)(F)F)CCN(CC4CC4)CC3)cc2)c1 [Example 60]	101 to 5500
O=C(NCC1(c2ccc(-c3cccc(Cl)c3)cc2)CCN(C2CCCC2)CC1)Nc1cc(Cl)cc(Cl)c1 [Example 77]	0.2 to 10
CCCN1CCC(CNC(=O)Nc2cc(Cl)cc(Cl)c2)(c2ccc(-c3cccc(Cl)c3)cc2)CC1 [Example 74]	0.2 to 10

Compound	Ki [nM]
N#Cc1cccc(-c2ccc(C3(CNC(=O)Nc4ccc(F)c(Cl)c4)CCN(CCC(F)(F)F)CC3)cc2)c1 [Example 117]	0.2 to 10
O=C(Nc1cc(Cl)cc(Cl)c1)N1CCC(CN(CC2CC2)CC2CC2)(c2ccc(-c3ccc4c(c3)OCO4)cc2)CC1 [Example 132]	101 to 5500
CC(=O)c1cccc(-c2ccc(C3(CNC(=O)Nc4cc(Cl)cc(Cl)c4)CCN(C(C)C)CC3)cc2)c1 [Example 80]	11 to 100
CCCN1CCC(CNC(=O)Nc2ccc(Cl)c(C(F)(F)F)c2)(c2ccc(-c3cccc(Cl)c3)cc2)CC1 [Example 64]	11 to 100
O=C(NCC1(c2ccc(-c3cccc(Cl)c3)cc2)CCN(CC2CC2)CC1)Nc1cc(Cl)cc(Cl)c1 [Example 70]	0.2 to 10
CCCN1CCC(CNC(=O)Nc2cc(F)cc(F)c2)(c2ccc(-c3cccc(C#N)c3)cc2)CC1 [Example 102]	0.2 to 10
COCCN1CCC(CNC(=O)Nc2ccc3c(c2)OCO3)(c2ccc(-c3cccc(C#N)c3)cc2)CC1 [Example 92]	0.2 to 10
CN1CCC(CNC(=O)Nc2ccc(F)c(F)c2)(c2ccc(-c3cccnc3)cc2)CC1 [Example 30]	11 to 100
CN1CCC(CNC(=O)Nc2ccc(Cl)c(C(F)(F)F)c2)(c2ccc(-c3cccc(Cl)c3)cc2)CC1 [Example 51]	0.2 to 10
CN1CCC(CNC(=O)Nc2ccc(Cl)cc2C(F)(F)F)(c2ccc(-c3cccc(C#N)c3)cc2)CC1 [Example 67]	101 to 5500
CCCN1CCC2(CC1)CN(C(=O)Nc1ccc(F)c(Cl)c1)c1ccc(-c3cccc(C#N)c3)cc12 [Example 46]	101 to 5500
CN1CCC(CNC(=O)Nc2cc(Cl)cc(Cl)c2)(c2ccc(-c3cc4ccccc4o3)cc2)CC1 [Example 40]	101 to 5500
O=C(NCC1(c2ccc(-c3ccc4c(c3)OCO4)cc2)CCN(C2CCCC2)CC1)Nc1cc(Cl)cc(Cl)c1 [Example 81]	0.2 to 10
COCCN1CCC(CNC(=O)Nc2cc(F)cc(C(F)(F)F)c2)(c2ccc(-c3cccc(C#N)c3)cc2)CC1 [Example 89]	0.2 to 10
O=C(Nc1cc(Cl)cc(Cl)c1)N1CCC(CN(CC2CC2)CC2CC2)(c2ccc(-c3cccc(Cl)c3)cc2)CC1 [Example 126]	101 to 5500
CN1CCC(CNC(=O)Cc2ccc(Cl)c(Cl)c2)(c2ccc(-c3cccc(C#N)c3)cc2)CC1 [Example 87]	11 to 100
Cc1ccc(C2(CNC(=O)Nc3cc(Cl)cc(Cl)c3)CCN(C3CCCC3)CC2)cc1 [Example 26]	101 to 5500
O=C(NCC1(c2ccc(-c3cccc(Cl)c3)cc2)CCN(CC2CC2)CC1)Nc1ccc(Cl)cc1C(F)(F)F [Example 48]	101 to 5500
CC(=O)Nc1cccc(-c2ccc(C3(CNC(=O)Nc4cc(Cl)cc(Cl)c4)CCN(C4CCOCC4)CC3)cc2)c1 [Example 110]	11 to 100
CCCN1CCC(CNC(=O)Nc2cc(C(F)(F)F)ccc2Cl)(c2ccc(-c3cccc(C#N)c3)cc2)CC1 [Example 63]	11 to 100
